# Data reported in PubChem BioAssay (NCI).
#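 Step 1: Grow cells in 96-well plates. Step 2: Expose to compound for 48 hours at 5 concentrations. Step 3: Interpolate endpoints linearly; if unreached, use highest concentration. At the GI50, growth is halved. TGI is the concentration that stops growth completely.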
# What was measured:
# Assay in all cases: NCI tumour cell line growth inhibition, 48 h
# [1] = system: SR leukemia
# [2] = system: RPMI-8226 leukemia
# [3] = system: HT29 colon
# [4] = system: NCI-H460 lung
# [5] = system: PC-3 prostate
# [6] = system: SK-OV-3 ovarian
# [7] = system: MCF7 breast
# [8] = system: OVCAR-4 ovarian
# [9] = system: SNB-75 CNS
# [10] = system: DU-145 prostate
# [11] = system: NCI-H226 lung
# [12] = system: HS 578T breast
# [13] = system: UO-31 renal
# [14] = system: SNB-19 CNS
# [15] = system: SK-MEL-2 melanoma
# [16] = system: SK-MEL-28 melanoma
# [17] = system: NCI/ADR-RES ovarian
# [18] = system: CCRF-CEM leukemia
# [19] = system: HL-60(TB) leukemia
# [20] = system: HCT-15 colon
# [21] = system: U251 CNS
# [22] = system: MDA-MB-231 breast
# [23] = system: K-562 leukemia
# [24] = system: SF-268 CNS
# [25] = system: HCC-2998 colon
# [26] = system: HOP-92 NSCLC
# [27] = system: A498 renal
# [28] = system: HOP-62 NSCLC
# [29] = system: SW-620 colon
# [30] = system: M14 melanoma
# [31] = system: CAKI-1 renal
# [32] = system: 786-0 renal
# [33] = system: UACC-62 melanoma
# [34] = system: EKVX NSCLC
# [35] = system: UACC-257 melanoma
# [36] = system: LOX IMVI melanoma
# [37] = system: OVCAR-8 ovarian
# [38] = system: HCT-116 colon
# [39] = system: T-47D breast
# [40] = system: KM12 colon
# [41] = system: COLO 205 colon
# [42] = system: MDA-MB-435
# [43] = system: SF-539 CNS
# [44] = system: IGROV1 ovarian
# [45] = system: RXF 393 renal
# [46] = system: TK-10 renal
# [47] = system: SK-MEL-5 melanoma
# [48] = system: SF-295 CNS
# [49] = system: MOLT-4 leukemia
# [50] = system: A549 NSCLC
# [51] = system: NCI-H23 lung
# [52] = system: NCI-H522 lung
# [53] = system: OVCAR-3 ovarian
# [54] = system: ACHN renal
# [55] = system: BT-549 breast
smiles,measurement,setting,value
O=C1CC(c2ccccc2Cl)Oc2ccccc21 (stereo not given),TGI,[1],50.9 µM
same,TGI,[2],40.7 µM
same,TGI,[3],22.7 µM
same,TGI,[4],> 100 µM
same,TGI,[5],> 100 µM
same,TGI,[6],> 100 µM
same,TGI,[7],45.4 µM
same,TGI,[8],> 100 µM
same,TGI,[9],> 100 µM
same,TGI,[10],> 100 µM
same,TGI,[11],30.1 µM
same,TGI,[12],> 100 µM
same,TGI,[13],> 100 µM
same,TGI,[14],> 100 µM
same,TGI,[15],59.9 µM
same,TGI,[16],> 100 µM
same,TGI,[17],48.8 µM
same,TGI,[18],> 100 µM
same,TGI,[19],> 100 µM
same,TGI,[20],61 µM
same,TGI,[21],83 µM
same,TGI,[22],47.4 µM
same,TGI,[23],40.8 µM
same,TGI,[24],> 100 µM
same,TGI,[25],> 100 µM
same,TGI,[26],75.2 µM
same,TGI,[27],> 100 µM
same,TGI,[28],91.1 µM
same,TGI,[29],67.5 µM
same,TGI,[30],> 100 µM
same,TGI,[31],> 100 µM
same,TGI,[32],89.5 µM
same,TGI,[33],> 100 µM
same,TGI,[34],> 100 µM
same,TGI,[35],> 100 µM
same,TGI,[36],> 100 µM
same,TGI,[37],87.1 µM
same,TGI,[38],> 100 µM
same,TGI,[39],> 100 µM
same,TGI,[40],81.7 µM
same,TGI,[41],68.2 µM
same,TGI,[42],43.7 µM
same,TGI,[43],34.8 µM
same,TGI,[44],> 100 µM
same,TGI,[45],63.5 µM
same,TGI,[46],> 100 µM
same,TGI,[47],> 100 µM
same,TGI,[48],> 100 µM
CC1(C)C(=O)/C(=C\c2ccccn2)C[C@]2(C)[C@H]3CC[C@@H]4[C@@H](C(=O)/C=C/c5ccccn5)CC[C@@]4(C)[C@]3(C)CC[C@@H]12,GI50,[1],0.342 µM
same,TGI,[1],2.11 µM
same,GI50,[49],0.537 µM
same,TGI,[49],> 100 µM
same,GI50,[3],1.05 µM
same,TGI,[3],3.46 µM
same,GI50,[4],1.97 µM
same,TGI,[4],4.2 µM
same,GI50,[50],2.02 µM
same,TGI,[50],> 28.2 µM
same,GI50,[6],3.89 µM
same,TGI,[6],> 100 µM
same,GI50,[7],0.405 µM
same,TGI,[7],3.89 µM
same,GI50,[51],2 µM
same,TGI,[51],4.63 µM
same,GI50,[8],2.41 µM
same,TGI,[8],> 100 µM
same,GI50,[52],2.01 µM
same,TGI,[52],4.52 µM
same,GI50,[10],1.76 µM
same,TGI,[10],3.23 µM
same,GI50,[11],1.8 µM
same,TGI,[11],4.85 µM
same,GI50,[13],0.787 µM
same,TGI,[13],2.1 µM
same,GI50,[53],0.538 µM
same,TGI,[53],1.85 µM
same,GI50,[17],1.47 µM
same,TGI,[17],5.93 µM
same,GI50,[19],0.486 µM
same,TGI,[19],3.95 µM
same,GI50,[54],0.479 µM
same,TGI,[54],1.69 µM
same,GI50,[21],0.749 µM
same,TGI,[21],2.08 µM
same,GI50,[22],0.532 µM
same,TGI,[22],2.53 µM
same,GI50,[23],0.347 µM
same,TGI,[23],> 100 µM
same,GI50,[25],1.8 µM
same,TGI,[25],3.49 µM
same,GI50,[27],1.67 µM
same,TGI,[27],3.11 µM
same,GI50,[28],2.14 µM
same,TGI,[28],5.82 µM
same,GI50,[30],0.907 µM
same,TGI,[30],3.14 µM
same,GI50,[32],1.2 µM
same,TGI,[32],2.77 µM
same,GI50,[33],1.19 µM
same,TGI,[33],2.58 µM
same,GI50,[35],1.64 µM
same,TGI,[35],5.47 µM
same,GI50,[36],0.232 µM
same,TGI,[36],0.565 µM
same,GI50,[37],0.493 µM
same,TGI,[37],> 100 µM
same,GI50,[38],0.263 µM
same,TGI,[38],0.795 µM
same,GI50,[40],1.67 µM
same,TGI,[40],3.21 µM
same,GI50,[41],1.76 µM
same,TGI,[41],4.38 µM
same,GI50,[55],1.38 µM
same,TGI,[55],4.26 µM
same,GI50,[42],0.296 µM
same,TGI,[42],0.885 µM
same,GI50,[45],0.859 µM
same,TGI,[45],2.26 µM
same,GI50,[47],1.51 µM
same,TGI,[47],2.89 µM
